Patent US11602534B2, “Pyrimidine derivative kinase inhibitors” (HEFEI INSTITUTES OF PHYSICAL SCIENCE, CHINESE ACADEMY OF …, priority 2017, dated 2023)

Key:
Format in all cases: cell-based, human
[1] = Phosphorylation of STATS downstream of FLT3 in AML cells; settings: MV-4-11, MOLM13 and MOLM-14; 4 hours; compounds 0.01-3 μM, PKC412 1 μM
Description: (§1) In cells having FLT3 gene and/or FLT3/ITD mutant gene, specifically, human acute myeloid leukemia cells MV4-11 (expressing FLT3/ITD mutant gene) cell strain and human acute myeloid leukemia cells MOLM-13 and MOLM-14 (expressing FLT3/ITD mutant gene and wild-type FLT3 gene) cell strains, Compound 5, Compound 135 and a FLT3 kinase inhibitor, PKC412 (purchased from Hao Yuan Chemexpress Company, Shanghai), which was used as the control, were evaluated for their effects in cells on phosphorylation of FLT3 and FLT3/ITD protein kinase and phosphorylation of the closely-related STATS protein which is downstream of FLT3 signaling pathways, as well as their effects on phosphorylation of other relevant protein kinases such as ERK and AKT, by assaying a number of cellular biochemical and functional endpoints. In addition, the effects on C-Myc and phosphorylation of the transcription factor NF-κB subunit p65 was also examined (FIGS. 1a-1f). Compound 5 and Compound 135 at different concentrations (0 μM, 0.01 μM, 0.03 μM, 0.1 μM, 0.3 μM, 1 μM, 3 μM in DMSO) and the FLT3 kinase inhibitor PKC412 (1 μM in DMSO) were used to treat acute myeloid leukemia cells MV-4-11, MOLM13 and MOLM-14 that had FLT3 and/or FLT3/ITD gene for 4 hours, respectively, and then the samples were collected. The effects of the compounds on the phosphorylation of proteins such as STATS, C-Myc, ERK, NF-κB p65, AKT in cells were tested (FIGS. 1a-1f).

C-Myc = assay: Degradation of C-Myc in AML cells; settings: MV-4-11, MOLM13 and MOLM-14; 4 hours; compounds 0.01-3 μM, PKC412 1 μM
Description: as §1

protein kinase FLT3 = assay: Phosphorylation of FLT3 in AML cells; settings: MV-4-11, MOLM-13 and MOLM-14 cell lines; 4 hours; compounds 0.01-3 μM, PKC412 1 μM
Description: as §1

CO[C@@H]1[C@H](N(C)C(=O)c2ccccc2)C[C@H]2O[C@]1(C)n1c3ccccc3c3c4c(c5c6ccccc6n2c5c31)C(=O)NC4 [PKC412, reference compound]
strongly inhibited: phosphorylation of STATS [1] | degradation of C-Myc (C-Myc) | phosphorylation of the protein kinase FLT3 (protein kinase FLT3)
